Values of other authors, collected in patent publication US20090318556A1, “BIOMARKERS FOR DETECTING RADIATION EXPOSURE: METHODS AND USES THEREOF” (priority 2008, published 2009).

Tests used:
[1] = molecular target: T1, PPARα (Mus musculus, UniProt P23204); details: mice
T1 construct: host or cells: mice (whole animal, endogenous receptor)
T1 sequence (P23204 1-468): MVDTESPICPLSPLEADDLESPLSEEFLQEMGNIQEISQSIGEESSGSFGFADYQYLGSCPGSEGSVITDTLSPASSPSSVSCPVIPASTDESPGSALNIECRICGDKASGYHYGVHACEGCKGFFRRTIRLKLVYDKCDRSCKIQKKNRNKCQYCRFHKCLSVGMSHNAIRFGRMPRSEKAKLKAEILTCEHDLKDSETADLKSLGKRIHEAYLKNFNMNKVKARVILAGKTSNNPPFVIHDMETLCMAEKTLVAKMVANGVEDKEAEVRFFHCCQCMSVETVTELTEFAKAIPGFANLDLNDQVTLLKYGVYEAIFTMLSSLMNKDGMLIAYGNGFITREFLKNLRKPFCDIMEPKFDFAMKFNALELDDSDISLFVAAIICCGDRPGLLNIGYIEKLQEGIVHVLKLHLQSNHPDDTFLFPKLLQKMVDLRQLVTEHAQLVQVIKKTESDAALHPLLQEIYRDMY

[2] = in vivo, iv

Compound	urinary excretion reduced after activation of PPARα [1]	radioactivity in urine relative to plasma [2]
CCCCCC(=O)NCC(=O)O [N-Hexanoylglycine]	20 fold	–
Cc1cn([C@H]2C[C@H](O)[C@@H](CO)O2)c(=O)[nH]c1=O [[^3H]thymidine]	–	approximately 100 times
